We go through 8 compounds from ChEMBL document CHEMBL1201862, “PubChem BioAssay data set” (2004).

Each structure is given as a SMILES string. Active and inactive are the calls of the source.

Test [1] deals with Mitochondrial peptide methionine sulfoxide reductase (Bos taurus, UniProt P54149). Nature of the test: Absorbance-based biochemical high throughput dose response assay for activators of Methionine sulfoxide reductase A (MsrA). The test is classed as functional.
Test [2] deals with Type-1 angiotensin II receptor (Homo sapiens, UniProt P30556). The experiment in a line: antagonism of angiotensin II type 1 receptor – cell-based, uHTS hits, selectivity assay for APJ receptor antagonist project, dose response (AID 463214).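 Also: antagonist potency against angiotensin II stimulated AT1 response.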 In kind it is functional.
A further test addresses Beta-galactosidase (Escherichia coli, UniProt Q8VNN2). The experiment in a line: PubChem AID 485352. The test is classed as functional.
Test [3] relates to Escherichia coli. The experiment in a line: microbe, parasite or virus in culture.
A further test deals with Hexokinase-1 (Homo sapiens, UniProt P19367). Nature of the test: hexokinase 1 activity inhibitors, potency – biochemical, set 2, resazurin fluorescence coupled readout, selectivity assay for HKDC1 inhibitor project, SAR follow-up (AID 588356). The test is classed as functional. A general note: Resazurin is reduced to fluorescent resorufin, in cell work by metabolically active cells.

A further test deals with T1, Hexokinase HKDC1 (Homo sapiens, UniProt Q2TB90).
T1 sequence (Q2TB90 whole entry): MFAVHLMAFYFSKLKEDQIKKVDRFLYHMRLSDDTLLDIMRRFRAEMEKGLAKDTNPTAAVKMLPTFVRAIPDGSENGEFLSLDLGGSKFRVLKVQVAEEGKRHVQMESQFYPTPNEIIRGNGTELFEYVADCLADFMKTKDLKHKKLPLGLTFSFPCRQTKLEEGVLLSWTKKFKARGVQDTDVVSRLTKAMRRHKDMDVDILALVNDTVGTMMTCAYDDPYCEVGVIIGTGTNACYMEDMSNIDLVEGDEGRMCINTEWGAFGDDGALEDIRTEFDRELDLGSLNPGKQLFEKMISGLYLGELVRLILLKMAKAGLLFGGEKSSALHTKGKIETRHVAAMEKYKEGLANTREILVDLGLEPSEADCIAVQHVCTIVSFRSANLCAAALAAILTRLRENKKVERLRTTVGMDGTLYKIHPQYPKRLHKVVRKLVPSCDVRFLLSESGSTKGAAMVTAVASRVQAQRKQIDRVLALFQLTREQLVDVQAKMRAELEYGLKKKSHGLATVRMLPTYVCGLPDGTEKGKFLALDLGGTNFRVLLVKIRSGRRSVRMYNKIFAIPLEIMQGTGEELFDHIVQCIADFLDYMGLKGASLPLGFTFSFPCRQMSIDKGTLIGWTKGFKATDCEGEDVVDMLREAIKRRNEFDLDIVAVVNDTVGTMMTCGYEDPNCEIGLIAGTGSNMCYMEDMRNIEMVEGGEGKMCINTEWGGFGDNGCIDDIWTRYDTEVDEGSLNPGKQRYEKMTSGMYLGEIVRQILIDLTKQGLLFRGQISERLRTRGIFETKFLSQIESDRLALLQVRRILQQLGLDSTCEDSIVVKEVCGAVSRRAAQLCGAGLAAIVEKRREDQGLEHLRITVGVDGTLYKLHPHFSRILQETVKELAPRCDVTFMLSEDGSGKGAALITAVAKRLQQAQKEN
Nature of the test: analog inhibition of human HKDC1 activity – biochemical, set 2, SAR follow-up (AID 588355). In kind it is functional.

In another test the target is Phospholipase D2 (Homo sapiens, UniProt O14939). Nature of the test: cellular phospholipase D2 inhibition IC50 – cell-based, dose response (AID 602147).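 Also: cellular assay in HEK293 cells overexpressing GFP-tagged PLD2.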 In kind it is functional.
The target in another test is Phospholipase D1 (Homo sapiens, UniProt Q13393). The experiment in a line: cellular phospholipase D1 inhibition IC50 – cell-based, dose response (AID 602151).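 Also: cellular PLD1 assay in Calu-1 cells stimulated with PMA.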 In kind it is functional.
The subject of test [4] is Candida albicans. Nature of the test: fluconazole-resistant Candida strain growth inhibitors – CaCi-8 strain, dry powder, set 4, dose response (AID 488950). In kind it is functional, organism-based.
In test [5] the test system is Candida albicans. Nature of the test: Candida growth inhibition combined with fluconazole – CaCi-2 strain, Alamar Blue, dry powder, set 3, dose response (AID 488907). In kind it is functional, organism-based.
Test [6] has as its system Candida albicans. Nature of the test: C. albicans growth inhibition with fluconazole – CaCi-2 strain, Alamar Blue, dry powder, set 4, dose response (AID 488943). The test is classed as functional, organism-based.
The test system of test [7] is Candida albicans. Nature of the test: resistant Candida growth with fluconazole co-treatment – CaCi-8 strain, Alamar Blue, dry powder, set 3, dose response (AID 488905). In kind it is functional, organism-based.
Test [8] can be described thus: Luminescence Cell-Based Dose Response HTS to Identify Inhibitors of 5'UTR Stem-Loop Driven Prion Protein mRNA Translation in H4 Neuroglioblastoma Cells. [Related pubchem assays: 1827 (Project Summary), 1813 (Primary HTS)]. In kind it is functional.
Test [9] relates to Escherichia coli. The experiment in a line: microbe, parasite or virus in culture. This is another data set of the same source.
Test [10] can be described thus: alpha-synuclein stem-loop luciferase translation blockers – H4 neuroglioma cells, luminescence, confirmation (AID 1988). In kind it is functional, cell-based.
A short description of test [11]: luciferase reporter signal suppression in cells – H4 neuroglioma cells, luminescence, dose response (AID 1990). The test is classed as functional, cell-based. For orientation: Reporter assays use an easily measured gene product as a stand-in for the process of interest.
The target in test [12] is Latent membrane protein 1 (Human herpesvirus 4 (strain B95-8), UniProt P03230). The experiment in a line: LMP1 TES1 pathway selectivity over dsRED control – imaging, HEK293T, dual-color eGFP/dsRED, cherry-picks, selectivity assay for LMP1 NF-kB inhibitor project, dose response (AID 588398). The test is classed as functional, cell-based.
Another test relates to INS1. The experiment in a line: INS-1E survival protection against cytokine death – cell-based, luminescence, retest, dose response (AID 449756).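 Also: cell death triggered by IL-1 beta plus TNF-alpha plus IFN-gamma mixture; protective hits raise ATP signal compared with cytokine alone wells.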 In kind it is functional. The following applies: Rattus norvegicus.
In another test the test system is HEK293. The experiment in a line: EBV LMP1 TES2 canonical NF-kB signalling blockers – cell-based, HEK293, luciferase, cherry-pick, dose response (AID 588343). In kind it is functional. The settings on record: Homo sapiens.
The subject of another test is Streptococcus. Nature of the test: GAS UMAA2166 growth inhibition – luminescence, BacTiterGlo, counter-screen for streptokinase expression inhibitor project, dose response (AID 1915).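 Also: potency for reduction of bacterial viability or growth.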 In kind it is functional, organism-based. In general terms: The purpose of a counterscreen is to sort out artefacts and off-target activity.
Test [13] deals with Streptococcus sp. 'group A'. Nature of the test: Streptococcus pyogenes SK(-)GAS viability under kanamycin – luminescence, BacTiterGlo, confirmation, counter-screen for streptokinase expression inhibitor project, dose response (AID 1900). The test is classed as functional, organism-based.
Test [14] in a line: NIH3T3 cell viability loss – ATP luminescence, mouse fibroblasts, counter-screen, dose response (AID 2010).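 Also: cells exposed to compound for about 90 hours before reading.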 The test is classed as functional, cell-based.
Another test has as its target T2, Streptokinase A (Streptococcus pyogenes serotype M1, UniProt P10520).
T2 sequence (P10520 whole entry): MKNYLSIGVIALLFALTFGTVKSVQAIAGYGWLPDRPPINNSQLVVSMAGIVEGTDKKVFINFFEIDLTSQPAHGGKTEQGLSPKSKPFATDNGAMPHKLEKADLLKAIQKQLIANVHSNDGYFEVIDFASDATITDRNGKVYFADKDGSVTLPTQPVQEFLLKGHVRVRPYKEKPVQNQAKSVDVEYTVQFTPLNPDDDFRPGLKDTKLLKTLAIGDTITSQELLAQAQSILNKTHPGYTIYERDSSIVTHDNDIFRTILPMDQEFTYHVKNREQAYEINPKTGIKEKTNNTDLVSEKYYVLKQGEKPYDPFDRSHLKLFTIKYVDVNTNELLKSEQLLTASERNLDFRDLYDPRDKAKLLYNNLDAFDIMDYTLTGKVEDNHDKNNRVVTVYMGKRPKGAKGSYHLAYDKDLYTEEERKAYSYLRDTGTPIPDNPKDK
Nature of the test: viability-normalized secreted streptokinase activity reduction – plasminogen activation absorbance, OD405, dose response (AID 1914).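 Also: secreted streptokinase activity via plasminogen activation per viability signal from cell pellet.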 The test is classed as functional, Streptococcus pyogenes M1 GAS.

Test [15] can be described thus: Trypanosoma cruzi growth suppression in host cells – NIH3T3 host cells, beta-gal luminescence, confirmation (AID 2044).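 Also: intracellular parasites grown in NIH/3T3 mouse fibroblasts as host cells; luminescent beta-galactosidase reporter signal from transgenic T. cruzi replicating inside host cells; inhibitors lower the luminescence signal.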 In kind it is functional, cell-based.
Test [16] concerns A-375. The experiment in a line: MITF: Counter assay: A375 proliferation Measured in Cell-Based System Using Plate Reader - 2084-03_Inhibitor_Dose_DryPowder_Activity. [Related pubchem assays (depositor defined):AID488944]. In kind it is functional. The following applies: Homo sapiens.
In test [17] the test system is A-375. Nature of the test: proliferation inhibition in MITF-low A375 cells – cell-based, cherry-pick samples, set 2, counter-screen for MITF modulator project, dose response (AID 540335). The settings on record: Homo sapiens. The test is classed as functional.

Sequence of Latent membrane protein 1 (P03230 whole entry): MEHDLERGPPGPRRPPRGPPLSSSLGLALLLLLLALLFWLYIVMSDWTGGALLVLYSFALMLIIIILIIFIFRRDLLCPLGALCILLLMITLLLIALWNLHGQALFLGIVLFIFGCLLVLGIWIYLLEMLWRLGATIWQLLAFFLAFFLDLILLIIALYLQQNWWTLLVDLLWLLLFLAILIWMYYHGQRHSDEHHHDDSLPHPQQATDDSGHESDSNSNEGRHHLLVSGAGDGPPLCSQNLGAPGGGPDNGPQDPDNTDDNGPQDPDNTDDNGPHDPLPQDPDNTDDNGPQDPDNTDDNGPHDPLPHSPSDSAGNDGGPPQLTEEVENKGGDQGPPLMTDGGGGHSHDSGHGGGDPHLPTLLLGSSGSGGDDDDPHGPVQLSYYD
Sequence of Type-1 angiotensin II receptor (P30556 whole entry): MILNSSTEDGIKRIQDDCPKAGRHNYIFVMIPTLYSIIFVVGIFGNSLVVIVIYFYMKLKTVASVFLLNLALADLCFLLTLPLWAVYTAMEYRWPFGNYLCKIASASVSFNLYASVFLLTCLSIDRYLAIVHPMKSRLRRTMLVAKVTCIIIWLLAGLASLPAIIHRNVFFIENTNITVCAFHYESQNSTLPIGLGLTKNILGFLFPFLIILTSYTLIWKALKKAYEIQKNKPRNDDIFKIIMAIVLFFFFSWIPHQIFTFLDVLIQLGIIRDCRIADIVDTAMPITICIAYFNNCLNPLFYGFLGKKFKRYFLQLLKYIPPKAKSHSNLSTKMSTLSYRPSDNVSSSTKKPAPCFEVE
Sequence of Beta-galactosidase (Q8VNN2 whole entry): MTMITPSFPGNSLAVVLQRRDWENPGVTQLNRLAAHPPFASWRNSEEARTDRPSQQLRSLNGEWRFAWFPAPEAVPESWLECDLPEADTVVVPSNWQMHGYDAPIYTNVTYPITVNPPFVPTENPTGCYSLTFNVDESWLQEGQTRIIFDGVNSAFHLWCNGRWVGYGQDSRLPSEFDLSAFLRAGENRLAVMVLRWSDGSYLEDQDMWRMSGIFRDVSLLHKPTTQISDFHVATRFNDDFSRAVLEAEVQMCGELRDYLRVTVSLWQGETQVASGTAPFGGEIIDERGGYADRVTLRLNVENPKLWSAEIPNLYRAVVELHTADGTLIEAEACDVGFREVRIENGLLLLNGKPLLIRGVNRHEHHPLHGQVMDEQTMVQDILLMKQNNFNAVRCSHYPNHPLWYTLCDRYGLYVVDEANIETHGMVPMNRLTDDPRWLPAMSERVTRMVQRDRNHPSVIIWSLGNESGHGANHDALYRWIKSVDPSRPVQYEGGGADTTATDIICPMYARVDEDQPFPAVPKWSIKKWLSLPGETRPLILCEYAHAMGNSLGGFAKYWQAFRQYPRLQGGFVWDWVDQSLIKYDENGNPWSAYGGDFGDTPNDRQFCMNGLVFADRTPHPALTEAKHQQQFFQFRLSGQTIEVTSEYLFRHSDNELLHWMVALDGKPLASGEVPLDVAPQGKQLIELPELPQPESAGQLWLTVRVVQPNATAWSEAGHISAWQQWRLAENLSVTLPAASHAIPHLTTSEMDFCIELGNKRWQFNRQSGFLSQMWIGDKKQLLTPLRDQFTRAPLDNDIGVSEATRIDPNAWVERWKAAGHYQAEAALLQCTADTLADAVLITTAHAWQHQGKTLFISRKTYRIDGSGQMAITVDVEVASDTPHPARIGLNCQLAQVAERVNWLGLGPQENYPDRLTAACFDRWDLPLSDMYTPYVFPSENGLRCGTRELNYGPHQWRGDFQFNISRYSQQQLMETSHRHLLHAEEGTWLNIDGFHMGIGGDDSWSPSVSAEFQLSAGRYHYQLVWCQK
Sequence of Phospholipase D1 (Q13393 whole entry): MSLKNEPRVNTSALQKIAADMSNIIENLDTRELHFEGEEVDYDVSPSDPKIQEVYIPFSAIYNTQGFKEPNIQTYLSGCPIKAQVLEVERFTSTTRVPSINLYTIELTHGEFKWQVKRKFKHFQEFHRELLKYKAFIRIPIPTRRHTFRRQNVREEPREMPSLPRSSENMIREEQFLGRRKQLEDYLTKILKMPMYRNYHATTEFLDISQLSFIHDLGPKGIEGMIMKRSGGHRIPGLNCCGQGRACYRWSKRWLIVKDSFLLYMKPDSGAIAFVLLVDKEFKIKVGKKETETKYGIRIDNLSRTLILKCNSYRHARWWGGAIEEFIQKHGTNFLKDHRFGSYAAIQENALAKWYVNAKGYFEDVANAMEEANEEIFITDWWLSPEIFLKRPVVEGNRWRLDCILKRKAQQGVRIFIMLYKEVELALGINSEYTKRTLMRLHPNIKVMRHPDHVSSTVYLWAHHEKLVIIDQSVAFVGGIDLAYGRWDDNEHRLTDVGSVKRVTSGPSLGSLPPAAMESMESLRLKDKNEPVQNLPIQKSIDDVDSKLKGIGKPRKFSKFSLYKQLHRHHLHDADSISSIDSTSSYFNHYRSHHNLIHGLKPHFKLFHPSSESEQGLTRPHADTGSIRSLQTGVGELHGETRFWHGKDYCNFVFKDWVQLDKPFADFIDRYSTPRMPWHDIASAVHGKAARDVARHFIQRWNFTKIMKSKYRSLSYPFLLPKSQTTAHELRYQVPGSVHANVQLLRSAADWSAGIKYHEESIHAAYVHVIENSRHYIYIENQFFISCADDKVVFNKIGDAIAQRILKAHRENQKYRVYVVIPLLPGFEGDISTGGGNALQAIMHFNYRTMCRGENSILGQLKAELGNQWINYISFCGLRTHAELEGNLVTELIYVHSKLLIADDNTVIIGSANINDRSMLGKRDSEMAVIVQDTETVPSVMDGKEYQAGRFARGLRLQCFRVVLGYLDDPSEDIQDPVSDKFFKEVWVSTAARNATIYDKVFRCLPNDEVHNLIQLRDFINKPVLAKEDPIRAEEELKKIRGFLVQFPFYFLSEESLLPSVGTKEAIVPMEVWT
Sequence of Mitochondrial peptide methionine sulfoxide reductase (P54149 whole entry): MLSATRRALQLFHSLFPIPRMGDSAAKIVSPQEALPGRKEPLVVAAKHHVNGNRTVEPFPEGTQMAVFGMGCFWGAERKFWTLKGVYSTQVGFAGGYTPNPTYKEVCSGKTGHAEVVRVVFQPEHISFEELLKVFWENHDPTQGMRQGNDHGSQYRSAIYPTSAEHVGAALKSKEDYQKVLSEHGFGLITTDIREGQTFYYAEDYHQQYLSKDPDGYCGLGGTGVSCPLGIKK
Sequence of Hexokinase-1 (P19367 whole entry): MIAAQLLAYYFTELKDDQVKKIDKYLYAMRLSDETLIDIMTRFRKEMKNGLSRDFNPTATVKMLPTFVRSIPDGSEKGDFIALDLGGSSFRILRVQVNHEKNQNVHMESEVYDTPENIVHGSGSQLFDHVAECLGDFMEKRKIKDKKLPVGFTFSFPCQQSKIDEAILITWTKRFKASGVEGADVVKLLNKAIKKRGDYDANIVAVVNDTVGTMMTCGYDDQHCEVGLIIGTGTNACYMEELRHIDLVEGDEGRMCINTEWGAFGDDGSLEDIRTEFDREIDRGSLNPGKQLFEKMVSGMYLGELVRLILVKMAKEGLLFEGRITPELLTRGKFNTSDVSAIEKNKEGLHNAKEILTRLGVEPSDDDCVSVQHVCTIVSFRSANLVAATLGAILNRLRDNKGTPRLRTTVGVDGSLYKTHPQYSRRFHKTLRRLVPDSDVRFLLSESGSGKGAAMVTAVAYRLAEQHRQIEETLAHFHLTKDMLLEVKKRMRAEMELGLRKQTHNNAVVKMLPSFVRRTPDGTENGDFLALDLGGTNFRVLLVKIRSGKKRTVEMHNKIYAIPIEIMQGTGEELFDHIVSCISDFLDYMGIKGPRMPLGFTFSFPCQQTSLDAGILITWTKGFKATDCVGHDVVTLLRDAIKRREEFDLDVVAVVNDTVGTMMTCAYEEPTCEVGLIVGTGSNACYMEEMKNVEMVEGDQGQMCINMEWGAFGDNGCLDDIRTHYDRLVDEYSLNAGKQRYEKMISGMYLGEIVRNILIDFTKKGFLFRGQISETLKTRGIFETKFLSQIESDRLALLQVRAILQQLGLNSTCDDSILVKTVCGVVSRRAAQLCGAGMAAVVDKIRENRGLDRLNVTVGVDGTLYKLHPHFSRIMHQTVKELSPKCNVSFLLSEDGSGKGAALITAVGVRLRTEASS
Sequence of Phospholipase D2 (O14939 whole entry): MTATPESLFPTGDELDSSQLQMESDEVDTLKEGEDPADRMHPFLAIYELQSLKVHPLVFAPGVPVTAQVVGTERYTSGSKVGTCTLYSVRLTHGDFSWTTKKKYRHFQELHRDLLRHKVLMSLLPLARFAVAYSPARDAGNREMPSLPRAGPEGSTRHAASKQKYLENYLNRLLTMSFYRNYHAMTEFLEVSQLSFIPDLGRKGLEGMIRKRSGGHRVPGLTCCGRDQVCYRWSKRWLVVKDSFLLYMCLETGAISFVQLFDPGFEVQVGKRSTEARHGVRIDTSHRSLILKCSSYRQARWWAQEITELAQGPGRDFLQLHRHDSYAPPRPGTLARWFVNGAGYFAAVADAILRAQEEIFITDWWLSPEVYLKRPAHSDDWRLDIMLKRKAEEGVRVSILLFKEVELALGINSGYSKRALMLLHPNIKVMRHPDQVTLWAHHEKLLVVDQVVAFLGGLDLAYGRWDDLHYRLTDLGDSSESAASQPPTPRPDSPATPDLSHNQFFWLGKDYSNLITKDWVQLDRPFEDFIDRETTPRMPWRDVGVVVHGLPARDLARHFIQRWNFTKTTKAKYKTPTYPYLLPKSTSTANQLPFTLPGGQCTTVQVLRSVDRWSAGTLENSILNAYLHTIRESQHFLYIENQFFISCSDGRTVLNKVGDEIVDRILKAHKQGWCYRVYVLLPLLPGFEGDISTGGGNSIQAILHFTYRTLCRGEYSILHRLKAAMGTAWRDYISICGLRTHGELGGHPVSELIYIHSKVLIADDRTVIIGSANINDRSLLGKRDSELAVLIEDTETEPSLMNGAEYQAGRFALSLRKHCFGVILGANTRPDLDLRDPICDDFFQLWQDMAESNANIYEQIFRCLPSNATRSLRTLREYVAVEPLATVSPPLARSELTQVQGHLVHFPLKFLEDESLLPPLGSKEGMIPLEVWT

Broadly, the EC50 is the concentration that produces a half-maximal response. What is called IC50 is the point on the concentration scale where inhibition reaches its midpoint. As to `O=C1c2ccccc2-c2nnc(-c3ccccc3)cc21`, the EC50 in [1] is > 104 µM (inactive); at Beta-galactosidase, > 40 µM (inactive). In addition, the IC50 in test [2] was 7.43 µM (active).
One may read the AC50 as the concentration at which the activity in the assay is half-maximal. For `Cc1nnc(SCc2ccccc2CSc2nnc(C)s2)s1`, the AC50 in the test with Escherichia coli [3] is 111 µM (active).
Take `COc1ccc2c(c1)C(NC(C)=O)C(=O)N2Cc1ccccc1` (stereo unspecified): the IC50 at Hexokinase-1 and at Hexokinase HKDC1 was > 80 µM (inactive) in each case.
Take `C[C@@H](CN1CCC2(CC1)C(=O)NCN2c1ccc(F)c(F)c1)NC(=O)c1ccc(F)cc1`: the IC50 is 0.26 µM (active) on Phospholipase D2 and 0.104 µM (active) on Phospholipase D1.
`Cc1ccc(N2CCN(C(=O)c3ccc(Cl)cc3)CC2)nn1`: the AC50 in the test with Candida albicans [4] was 4.41 µM (active); in the test on Candida albicans [5] it was 8.19 µM (active); with Candida albicans [6] it was 1.64 µM (active); in the test on Candida albicans [7], 103 µM (active).
Regarding `O=C(O)CCCc1nc(-c2ccc(Cl)cc2)no1`, the EC50 in [8] was 23.1 µM (active); in test [10] it was 16.2 µM (active); in [11], 27.1 µM (active). Further, in the test with Escherichia coli [9], the AC50 is 39 µM (active).
As to `CCCc1sc(N/N=C/c2ccccn2)nc1-c1ccc(Br)cc1`, the AC50 is 32.3 µM (active) in test [12], 8.41 µM (active) in the test with INS1 and 22.3 µM (active) in the test on HEK293. In addition, the EC50 in the test on Streptococcus is 8.45 µM (active); in test [13], 0.442 µM (active); in [14] it was 2.38 µM (active); at Streptokinase A it was > 150 µM (not active); in test [15], 0.202 µM (active).
Turning to `Cn1c(/C(C#N)=C/c2ccc(-c3ccc(S(N)(=O)=O)cc3)o2)nc2ccccc21`, the AC50 in the test on A-375 [16] and with A-375 [17] was > 11 µM (active) throughout.
